# Assay results: PubChem BioAssay AID248 (DTP/NCI, 2004)
# Where “and” joins values, the source holds several entries; their conditions need not be identical. Identical values can stand only once. Inconclusive results and toxic doses are left out.
# Tested on: L1210 leukemia ip in BDF1 mice, survival T/C
# Assay: NCI In Vivo Anticancer Drug Screen. Data for tumor model L1210 Leukemia (intraperitoneal) in B6D2F1 (BDF1) mice
# Settings: endpoint: mean survival time, higher = longer survival
# How it was run: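 Survival endpoint. Drug-treated group vs vehicle group, expressed as T divided by C. Tumor passaged by transplantation.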
# [1] = dose: 50.0 mg/kg/injection, schedule: Q01DX009 (ip), vehicle: saline with Tween-80
# [2] = dose: 100.0 mg/kg/injection, schedule: Q01DX009 (ip), vehicle: saline with Tween-80
# [3] = dose: 100.0 mg/kg/injection, schedule: Q04DX003 (ip), vehicle: saline with Tween-80
# [4] = dose: 200.0 mg/kg/injection, schedule: Q01DX009 (ip), vehicle: saline with Tween-80
# [5] = dose: 200.0 mg/kg/injection, schedule: Q04DX003 (ip), vehicle: saline with Tween-80
# [6] = dose: 100.0 mg/kg/injection, schedule: Q04DX003 (ip), vehicle: Klucel (hydroxypropylcellulose) (HPC)
# [7] = dose: 200.0 mg/kg/injection, schedule: Q04DX003 (ip), vehicle: Klucel (hydroxypropylcellulose) (HPC)
# [8] = dose: 100.0 mg/kg/injection, schedule: Q01DX001 (ip), vehicle: saline
# [9] = dose: 100.0 mg/kg/injection, schedule: Q04DX003 (ip), vehicle: saline
# [10] = dose: 200.0 mg/kg/injection, schedule: Q01DX001 (ip), vehicle: saline
# [11] = dose: 200.0 mg/kg/injection, schedule: Q04DX003 (ip), vehicle: saline
# [12] = dose: 400.0 mg/kg/injection, schedule: Q01DX001 (ip), vehicle: saline
# [13] = dose: 400.0 mg/kg/injection, schedule: Q04DX003 (ip), vehicle: saline with Tween-80
# [14] = dose: 100.0 mg/kg/injection, schedule: Q01DX009 (ip), vehicle: Klucel (hydroxypropylcellulose) (HPC)
# [15] = dose: 200.0 mg/kg/injection, schedule: Q01DX009 (ip), vehicle: Klucel (hydroxypropylcellulose) (HPC)
# [16] = dose: 400.0 mg/kg/injection, schedule: Q01DX009 (ip), vehicle: Klucel (hydroxypropylcellulose) (HPC)
# [17] = dose: 6.25 mg/kg/injection, schedule: Q01DX009 (ip), vehicle: Klucel (hydroxypropylcellulose) (HPC)
# [18] = dose: 12.5 mg/kg/injection, schedule: Q01DX009 (ip), vehicle: Klucel (hydroxypropylcellulose) (HPC)
# [19] = dose: 100.0 mg/kg/injection, schedule: Q01DX001 (ip), vehicle: carboxymethylcellulose (CMC)
# [20] = dose: 200.0 mg/kg/injection, schedule: Q01DX001 (ip), vehicle: carboxymethylcellulose (CMC)
# [21] = dose: 400.0 mg/kg/injection, schedule: Q01DX001 (ip), vehicle: carboxymethylcellulose (CMC)
smiles,measurement,setting,value
CC1=NCCc2c1cc1c([nH]c3ccccc31)c2C,T/C,"dose: 14.0 mg/kg/injection, schedule: Q01DX Z (ip), vehicle: carboxymethylcellulose (CMC)",106 % of control
same,T/C,"dose: 28.0 mg/kg/injection, schedule: Q01DX Z (ip), vehicle: carboxymethylcellulose (CMC)",107 % of control
same,T/C,"dose: 44.0 mg/kg/injection, schedule: Q01DX009 (ip), vehicle: other",121 % of control
same,T/C,"dose: 44.0 mg/kg/injection, schedule: Q01DX009 (ip), vehicle: saline with Tween-80",115 % of control
same,T/C,[1],101 % of control
same,T/C,"dose: 56.0 mg/kg/injection, schedule: Q01DX Z (ip), vehicle: carboxymethylcellulose (CMC)",113 % of control
same,T/C,"dose: 100.0 mg/kg/injection, schedule: Q01DX009 (ip), vehicle: other",151 % of control
same,T/C,[2],151 % of control
same,T/C,"dose: 100.0 mg/kg/injection, schedule: Q04DX003 (ip), vehicle: acetone",110 % of control
same,T/C,[3],110 % of control
same,T/C,"dose: 112.0 mg/kg/injection, schedule: Q01DX Z (ip), vehicle: carboxymethylcellulose (CMC)",123 % of control
same,T/C,"dose: 150.0 mg/kg/injection, schedule: Q01DX009 (ip), vehicle: saline with Tween-80",178 % of control
same,T/C,"dose: 177.0 mg/kg/injection, schedule: Q04DX003 (ip), vehicle: saline with Tween-80",122 % of control
same,T/C,[4],101 % of control
same,T/C,"dose: 200.0 mg/kg/injection, schedule: Q04DX003 (ip), vehicle: acetone",102 % of control
same,T/C,[5],115 % of control
same,T/C,"dose: 210.0 mg/kg/injection, schedule: Q01DX009 (ip), vehicle: other",98 % of control
same,T/C,"dose: 266.0 mg/kg/injection, schedule: Q04DX003 (ip), vehicle: saline with Tween-80",124 % of control
Cc1cc(S(=O)(=O)F)ccc1NC(=O)NCc1ccc([N+](=O)[O-])cc1Cl,T/C,[6],112 % of control
same,T/C,[7],101 % of control
O=C(O)c1cccc2ccc3ccccc3c12,T/C,[8],121 % of control
same,T/C,[9],102 % of control
same,T/C,[10],101 % of control
same,T/C,[11],96 % of control
same,T/C,[12],97 % of control
same,T/C,"dose: 400.0 mg/kg/injection, schedule: Q04DX003 (ip), vehicle: saline",96 % of control
NC(=O)N/N=C/CSCc1ccccc1,T/C,[3],102 % of control
same,T/C,[5],97 % of control
same,T/C,[13],92 % of control
O=C(NCCBr)Nc1cccc2c1Cc1ccccc1-2,T/C,[14],105 % of control
same,T/C,[6],95 % of control
same,T/C,[15],96 % of control
same,T/C,[7],95 % of control
same,T/C,[16],94 % of control
same,T/C,"dose: 400.0 mg/kg/injection, schedule: Q04DX003 (ip), vehicle: Klucel (hydroxypropylcellulose) (HPC)",97 % of control
N=C(N)S/C=C(/F)C(F)(F)CBr,T/C,"dose: 50.0 mg/kg/injection, schedule: Q01DX001 (ip), vehicle: saline",95 % of control
same,T/C,[8],101 % of control
same,T/C,[10],113 % of control
same,T/C,[12],101 % of control
CCOc1ccc(N)c(S)c1,T/C,"dose: 13.3 mg/kg/injection, schedule: Q01DX Z (ip), vehicle: methylcellulose (MC)",105 % of control
same,T/C,"dose: 20.0 mg/kg/injection, schedule: Q01DX Z (ip), vehicle: methylcellulose (MC)",97 % of control
same,T/C,"dose: 30.0 mg/kg/injection, schedule: Q01DX Z (ip), vehicle: methylcellulose (MC)",95 % of control
CCCCCCC[As](=O)(O)O,T/C,[17],99 % of control
same,T/C,[18],101 % of control
COc1ccc(/C=C/c2ccc3ccccc3[n+]2C)cc1,T/C,"dose: 12.5 mg/kg/injection, schedule: Q01DX009 (ip), vehicle: saline with Tween-80",94 % of control
same,T/C,"dose: 25.0 mg/kg/injection, schedule: Q01DX009 (ip), vehicle: saline with Tween-80",115 % of control
same,T/C,"dose: 25.0 mg/kg/injection, schedule: Q04DX003 (ip), vehicle: Klucel (hydroxypropylcellulose) (HPC)",101 % of control
same,T/C,[1],115 % of control
same,T/C,"dose: 50.0 mg/kg/injection, schedule: Q04DX003 (ip), vehicle: Klucel (hydroxypropylcellulose) (HPC)",106 % of control
CCOc1ccc(N2C(=O)CC(Sc3ccccc3N)C2=O)cc1 (stereo not given),T/C,[3],89 % of control
same,T/C,[5],90 % of control
same,T/C,[13],88 % of control
NC1=NCCN1c1cccc2ccccc12,T/C,"dose: 75.0 mg/kg/injection, schedule: Q01DX001 (ip), vehicle: carboxymethylcellulose (CMC)",102 % of control
same,T/C,"dose: 150.0 mg/kg/injection, schedule: Q01DX001 (ip), vehicle: carboxymethylcellulose (CMC)",98 % of control
CCCCC1(C(C)C)C(=O)NC(=O)N(C)C1=O (stereo not given),T/C,"dose: 75.0 mg/kg/injection, schedule: Q01DX001 (ip), vehicle: saline",100 % of control
same,T/C,"dose: 150.0 mg/kg/injection, schedule: Q01DX001 (ip), vehicle: saline",105 % of control
CN(C)CC1C(O)C2CCN1CC2 (stereo not given),T/C,[9],103 % of control
same,T/C,[11],103 % of control
Cc1cc(C)c(C)[nH]1,T/C,"dose: 6.25 mg/kg/injection, schedule: Q01DX009 (ip), vehicle: water",104 % of control
same,T/C,"dose: 12.5 mg/kg/injection, schedule: Q01DX009 (ip), vehicle: water",101 % of control
same,T/C,"dose: 25.0 mg/kg/injection, schedule: Q01DX009 (ip), vehicle: water",114 % of control
same,T/C,"dose: 50.0 mg/kg/injection, schedule: Q01DX009 (ip), vehicle: water",105 % of control and 121 % of control
CCC(C)C(C)NC(C)=O (stereo not given),T/C,[9],101 % of control
same,T/C,[11],113 % of control
Nc1nc(N)c(-c2ccc(Cl)cc2)c(C=O)n1,T/C,[19],108 % of control
same,T/C,[20],87 % of control
same,T/C,[21],108 % of control
c1ccc(-c2cnc[nH]2)cc1,T/C,"dose: 50.0 mg/kg/injection, schedule: Q01DX001 (ip), vehicle: carboxymethylcellulose (CMC)",100 % of control
same,T/C,[19],109 % of control
same,T/C,[20],117 % of control
O=C(O)c1cc(=O)cc(C(=O)O)o1,T/C,[3],95 % of control
c1ccc2c[n+]3ccccc3cc2c1,T/C,"dose: 6.25 mg/kg/injection, schedule: Q01DX009 (ip), vehicle: saline",103 % of control
same,T/C,"dose: 12.5 mg/kg/injection, schedule: Q01DX009 (ip), vehicle: saline",100 % of control
same,T/C,"dose: 25.0 mg/kg/injection, schedule: Q01DX009 (ip), vehicle: saline",111 % of control
C=NCC#N,T/C,[2],91 % of control
same,T/C,[4],91 % of control
same,T/C,"dose: 400.0 mg/kg/injection, schedule: Q01DX009 (ip), vehicle: saline with Tween-80",93 % of control
Cc1ccc(S(=O)(=O)N/N=C/C(Br)=C(/Br)C(=O)O)cc1,T/C,[17],106 % of control
same,T/C,[18],109 % of control
same,T/C,"dose: 25.0 mg/kg/injection, schedule: Q01DX009 (ip), vehicle: Klucel (hydroxypropylcellulose) (HPC)",111 % of control
same,T/C,"dose: 50.0 mg/kg/injection, schedule: Q01DX009 (ip), vehicle: Klucel (hydroxypropylcellulose) (HPC)",124 % of control
COC(=O)N/N=C/c1cccnc1,T/C,[14],103 % of control
same,T/C,[15],103 % of control
same,T/C,[16],111 % of control
CCCCCCC(=O)N(CCCCC)CCCCC,T/C,[19],98 % of control
same,T/C,"dose: 100.0 mg/kg/injection, schedule: Q01DX009 (ip), vehicle: carboxymethylcellulose (CMC)",96 % of control and 97 % of control
same,T/C,"dose: 100.0 mg/kg/injection, schedule: Q04DX002 (ip), vehicle: carboxymethylcellulose (CMC)",100 % of control and 102 % of control
same,T/C,"dose: 100.0 mg/kg/injection, schedule: Q04DX003 (ip), vehicle: carboxymethylcellulose (CMC)",93 % of control
same,T/C,[20],94 % of control
same,T/C,"dose: 200.0 mg/kg/injection, schedule: Q01DX009 (ip), vehicle: carboxymethylcellulose (CMC)",96 % of control and 105 % of control
same,T/C,"dose: 200.0 mg/kg/injection, schedule: Q04DX002 (ip), vehicle: carboxymethylcellulose (CMC)",98 % of control and 100 % of control
same,T/C,"dose: 200.0 mg/kg/injection, schedule: Q04DX003 (ip), vehicle: carboxymethylcellulose (CMC)",95 % of control
same,T/C,[21],104 % of control
same,T/C,"dose: 400.0 mg/kg/injection, schedule: Q04DX002 (ip), vehicle: carboxymethylcellulose (CMC)",98 % of control and 103 % of control
same,T/C,"dose: 400.0 mg/kg/injection, schedule: Q04DX003 (ip), vehicle: carboxymethylcellulose (CMC)",97 % of control
